From patent US12139555B2, “Peptides and compositions for inhibiting hair growth” (RODAN & FIELDS, LLC, priority 2019, dated 2024)
Ends that are not written are not given here. Peptide text beside a SMILES is read from it.

Experiments:
Assay type in all cases: cell-based, human
CCND1 = assay: Regressive μHF efficacy screening: CCND1 gene expression by RTqPCR
Description: (§1) To assess the biological activity of the identified set of 13 peptides and their capability to maintain quiescence state, the Vitroscreen μHF standard model has been adapted pushing it in a regressive state (catagen-like) by the application of TGFβ1 to reduce the expression of genes linked to active growth phase (anagen) and to make the model more responsive to FGF18 as quiescence signal.
(§2) In particular, in this regressive model, the application of TGFβ1 to 72H induces a catagen-like status with the down-regulation of FGF7 anagen gene and CCND1 as proliferation marker. […]
(§3) After the selection of test concentrations of the peptides, efficacy was performed on regressing μHF (TGFβ1 treated) at day 5 in order to evaluate the further efficacy of peptides to decrease the gene expression of proliferation (CCND1) and anagen marker (FGF7). The potential down-regulation of epithelial growth regulator WNT5B has been evaluated as an optional parameter.
(§4) Treatments: Negative control: 1 (not treated), Regression inducer: TGFβ1 10 ng/ml, Positive control: FGF18 10-100 ng/ml, Treatments: 13 peptides (1 concentration each), Biological replicates: 1 biological replicates from pool of 20 μHF, Time-point: after 72H of TGFβ1 induction followed by 24H of peptide or FGF18 application, Read-out parameters: 1 Proliferation gene (CCND1) by RTqPCR, 2 anagen regulators (FGF7, WNT5B) by RTqPCR […]

FGF7 = assay: Regressive μHF efficacy screening: FGF7 gene expression by RTqPCR
Description: as §1, §2, §3, §4

WNT5B = assay: Regressive μHF efficacy screening: WNT5B gene expression by RTqPCR; conditions: FGF18 100 ng/ml, after TGFβ1 10 ng/ml 72H
Description: as §1, §2, §3, §4

μHF = assay: Cytotoxicity testing on μHF, viability by ATP (CellTiter Glo); conditions: for Mean ATP content in μHF after 24 H treatment: N = 5 μHF, CN 1306.1; for ATP content relative to threshold (50% of negative control): 1-10-100 ng/ml, 24 h
Experimental: Cytotoxicity testing has been performed on μHF at day 3 in order to select the testing concentration of peptides for the following screening assays.
Treatments: Negative control: 1 (not treated), Positive control: FGF18 100 ng/ml, Treatments: 39 (13 peptides, 3 concentrations each: 1-10-100 ng/ml), Biological replicates: 5 μHF for each treatment, Time-point: 1 (after 24 H of treatment), Read-out parameters: Viability by ATP
The test items have been tested at 3 concentrations/each for their cytotoxicity potential after 24 h exposure on μHF. FGF18 100 ng/ml have been used as positive control. The toxicity has been evaluated by ATP release on n=5 μHF.
The μHF microtissue were reconstructed using the hanging drop method into GRAVITY^PLUS plates from InSphero (Switzerland) using fibroblasts and keratinocytes from human origin. The MTs were Transferred in GRAVITYTRAP for treatments and manipulation. Culture conditions: incubator at 37° C., 5% CO2, saturated humidity with adequate culture medium. The Fibroblast batch and keratinocytes has been tested for the absence of HIV, Hepatitis B, Hepatitis C, Mycoplasma. The maintenance medium has been tested for sterility.
The kit CellTiter Glo® (Promega) Luminescent cell Viability Assay is used for Adenosine-5- triphosphate (ATP) quantification. The assay procedures involves adding the single reagent directly to MTs cultured in medium. The cell lysis and the generation of a luminescent signal is proportional to the amount of ATP present. ATP measurements have been performed on 5 biological replicates and mean and standard deviation have been calculated. The threshold of 50% viability in comparison to negative control have been used as cut off; the max concentration possible over threshold has been used for the efficacy screening test.
For the selection of test concentrations of each peptide, the 50% ATP content in comparison with negative (not treated) control has been selected as threshold. The higher concentration over the selected threshold has been used for efficacy screening test for peptides form P1 to P9.

regressive μHF = assay: Overall efficacy in mimicking FGF18 in regressive μHF (CCND1, FGF7, WNT5B together); conditions: FGF18 10-100 ng/ml, after TGFβ1
Description: as §1, §2
The μHF model has been used for a screening study with the aim to characterize the 13 peptides designed on the basis of FGF18 structure in order to mimic its biological function in retarding hair growth. The following test items have been evaluated after the selection of test concentration in a preliminary tox assay.
as §3, with “parameter. […]” for “parameter.”

[1] = FGF18 100 ng/ml, after TGFβ1 10 ng/ml 72H

| Compound | Mean ATP content in μHF after 24 H treatment (μHF; 100 ng/ml) | Mean ATP content in μHF after 24 H treatment (μHF; 1 ng/ml) | Mean ATP content in μHF after 24 H treatment (μHF; 10 ng/ml) | other results |
| --- | --- | --- | --- | --- |
| Fibroblast Growth Factor 18 [FGF18] | 1560.3 nM |  |  | Effect on CCND1 expression after TGFβ1 (CCND1; [1]): further down-regulation; Effect on FGF7 expression after TGFβ1 (FGF7; [1]): further down-regulation; Effect on WNT5b expression after TGFβ1 (WNT5B): decrease; Effect in enhancing the down regulation of anagen markers (regressive μHF): dose-dependent effect |
| NCCCC[C@H](NC(=O)[C@@H](N)CCC(=O)O)C(=O)N[C@@H](CC(=O)O)C(=O)N[C@@H](CC(=O)O)C(=O)O [Peptide P5, EKDD] (H-EKDD-OH; N-terminus and C-terminus assumed) | 1255.5 nM | 1263.3 nM | 1108.9 nM |  |
| CC(C)[C@H](NC(=O)[C@H](CCCNC(=N)N)NC(=O)[C@@H](N)CC(=O)O)C(=O)N[C@@H](CCC(=O)O)C(=O)O [Peptide P10, DRVE] (H-DRVE-OH; N-terminus and C-terminus assumed) | 1329.1 nM | 1727.8 nM | 1706.1 nM | ATP content relative to threshold (50% of negative control) (μHF): over the threshold |
| C[C@@H](O)[C@H](NC(=O)[C@H](CCCNC(=N)N)NC(=O)[C@@H](N)CC(=O)O)C(=O)N[C@@H](CC(=O)O)C(=O)O [Peptide P11, DRTD] (H-DRTD-OH; N-terminus and C-terminus assumed) | 149.0 nM | 463.1 nM | 447.0 nM | ATP content relative to threshold (50% of negative control) (μHF): under-threshold |
| C[C@@H](O)[C@H](NC(=O)[C@H](CCCCN)NC(=O)[C@@H](N)CCC(=O)O)C(=O)N[C@@H](CC(=O)O)C(=O)O [Peptide P4, EKTD] (H-EKTD-OH; N-terminus and C-terminus assumed) | 1597.4 nM | 1567.7 nM | 1715.2 nM |  |
| N=C(N)NCCC[C@H](NC(=O)[C@@H](N)CC(=O)O)C(=O)N[C@@H](CC(=O)O)C(=O)N[C@@H](CCC(=O)O)C(=O)O [Peptide P8, DRDE] (H-DRDE-OH; N-terminus and C-terminus assumed) | 1229.3 nM | 1148.5 nM | 1155.5 nM |  |
| CC[C@H](C)[C@H](N)C(=O)N[C@@H](CCC(=O)O)C(=O)N[C@@H](CCCCN)C(=O)N[C@H](C(=O)O)C(C)C [Peptide P12, IEKV] (H-IEKV-OH; N-terminus and C-terminus assumed) | 370.0 nM | 435.7 nM | 562.8 nM | ATP content relative to threshold (50% of negative control) (μHF): under-threshold |
| CC(C)C[C@H](NC(=O)[C@H](CCCNC(=N)N)NC(=O)[C@@H](N)CC(=O)O)C(=O)N[C@@H](CCCCN)C(=O)O [Peptide P3, DRLK] (H-DRLK-OH; N-terminus and C-terminus assumed) | 1631.2 nM | 1026.2 nM | 924.8 nM |  |
| NCCCC[C@H](NC(=O)[C@@H](N)CCC(=O)O)C(=O)N[C@@H](CC(N)=O)C(=O)N[C@@H](CC(=O)O)C(=O)O [Peptide P7, EKND] (H-EKND-OH; N-terminus and C-terminus assumed) | 1258.8 nM | 1275.4 nM | 1243.9 nM |  |
| C[C@@H](O)[C@H](NC(=O)[C@H](CCCNC(=N)N)NC(=O)[C@@H](N)CCCCN)C(=O)NCC(=O)O [Peptide P6, KRTG] (H-KRTG-OH; N-terminus and C-terminus assumed) | 1313.3 nM | 1122.0 nM | 1116.0 nM |  |
| NCCCC[C@H](NC(=O)[C@@H](N)CC(=O)O)C(=O)N[C@@H](CO)C(=O)N[C@@H](CCC(=O)O)C(=O)O [Peptide P9, DKSE] (H-DKSE-OH; N-terminus and C-terminus assumed) | 1469.4 nM | 1521.4 nM | 1273.6 nM |  |
| Transforming Growth Factor Beta 1 [TGFβ1] |  |  |  | Effect on expression of CCND1 versus CN (CCND1; TGFβ1 10 ng/ml, 72H): reduced; Effect on expression of FGF7 versus CN (FGF7; TGFβ1 10 ng/ml, 72H): reduced |
| RTGQYK [Peptide P2, RTGQYK] | 1687.8 nM | 1522.4 nM | 1838.6 nM |  |
| CC(C)C[C@H](NC(=O)[C@H](CCC(N)=O)NC(=O)[C@@H](N)CCCCN)C(=O)N[C@@H](CCCNC(=N)N)C(=O)O [Peptide P1, KQLR] (H-KQLR-OH; N-terminus and C-terminus assumed) | 1903.1 nM | 1876.5 nM | 2007.2 nM |  |
| CC(C)[C@H](NC(=O)[C@H](CCCNC(=N)N)NC(=O)[C@@H](N)CC(=O)O)C(=O)O [Peptide P13, DRV] (H-Asp-Arg-Val-OH) | 404.1 nM | 576.0 nM | 516.6 nM | ATP content relative to threshold (50% of negative control) (μHF): under-threshold |
